Drawing on publication PMC6943536, “Free and Bound Phenolics of Buckwheat Varieties: HPLC Characterization, Antioxidant Activity, and Inhibitory Potency towards α-Glucosidase with Molecular Docking Analysis” (Antioxidants, 2019), this text covers IC50 for two compounds.

One may read the IC50 as the concentration needed to halve the response being measured. Lower therefore signals inhibition by little substance.

In brackets after ≈: the same amount, converted by molar mass.

For this experiment, the target named is T1, α-glucosidase.
T1 construct: gene MAL12; PDB 3A4A isomaltase is only a docking homologue
Put plainly: pNPG hydrolysis, absorbance […] nm. The experiment is classed as biochemical, Saccharomyces cerevisiae. Particulars: 5 mM p-NPG stock (100 µL of 250 µL), 0.1 M phosphate buffer pH 6.8, 37 °C, 10 min preincubation.

Compound `C[C@@H]1O[C@@H](OC[C@H]2O[C@@H](Oc3c(-c4ccc(O)cc4)oc4cc(O)cc(O)c4c3=O)[C@H](O)[C@@H](O)[C@@H]2O)[C@H](O)[C@H](O)[C@H]1O` [kaempferol-3-O-rutinoside] gave an IC50 of 447.50 ± 17.27 µg/mL (≈ 753 µM).

In turn, `O=C1c2c(O)cc(O)cc2O[C@H](c2cc(O)c(O)c(O)c2)[C@H]1O` [dihydromyricetin] returned a half-maximal inhibitory concentration (IC50) of 114.45 ± 0.31 µg/mL (≈ 357 µM).
